Measurements published in publication PMC11040670, “Mechanistic and Kinetic Insights into Cellular Uptake of Biomimetic Dinitrosyl Iron Complexes and Intracellular Delivery of NO for Activation of Cytoprotective HO-1” (JACS Au, 2024).

What was measured:
Format in all cases: cell-based, human
HCEC = assay: Intracellular release of NO (DAF-FM fluorescence) in HCEC; conditions: 75 μM DNIC–COOH or 1 μM DNIC–COOMe
Experimental: Intracellular release of NO by DNIC–COOH was validated using the fluorescence probe 4-amino-5-methylamino-2′,7′-difluorofluorescein diacetate (DAF-FM) in combination with fluorescence analysis techniques. Briefly, the MSC cells (or N2a and HCEC cells) were seeded onto a 96-well black plate at a density of 6 × 10^3 cells/well (or 1 × 10^4 cells/well for N2a and 8 × 10^3 cells/well for HCEC cells) and incubated at 37 °C overnight. On the next day, the MSC cells were first treated with 10 μM of DAF-FM (or 5 μM for N2a and HCEC cells) and incubated at 37 °C for 0.5 h. […] Fluorescence intensity of the cells was then recorded using a microplate reader (SpectraMax iD3, Molecular Devices, San Jose, CA) with an excitation wavelength at 485 nm and an emission wavelength at 525 nm. Three independent experiments were executed to measure the time-dependent change of average fluorescence intensity. Time-dependent change of average fluorescence intensity for the MSC/N2a/HCEC cells with sequential treatment of DAF-FM (10 μM for MSC cells, 5 μM for N2a cells, 5 μM for HCEC cells; 0.5 h) and DNIC–COOMe (2.5 μM for MSC cells, 10 μM for N2a cells, 1 μM for HCEC cells) was determined in a similar manner. […]

HMOX1 gene = assay: Real-time PCR of HMOX1 gene in MSC; conditions: at 3 h, 100 μM DNIC–COOH or 2.5 μM DNIC–COOMe
Experimental: After treatment of (1) 100 μM of DNIC–COOH to MSC, (2) 100 μM of DNIC–COOH to N2a, (3) 75 μM of DNIC–COOH to HCEC, (4) 2.5 μM of DNIC–COOMe to MSC, (5) 10 μM of DNIC–COOMe to N2a, and (6) 1 μM of DNIC–COOMe to HCEC, respectively, the total RNA of the treated cells was extracted using TRIzol Reagent (Thermo Fisher Scientific) in order to assess the time-dependent change in the mRNA level of HO-1. After the synthesis of complementary DNA with the High-Capacity Reverse Transcription Kit, qPCR was conducted using Power SYBR Green PCR Master Mix with the StepOnePlus Real-Time PCR System (Thermo Fisher Scientific). […] The relative mRNA levels of target genes were determined by a comparative threshold cycle method and normalized to that of RPL13A (or GAPDH). The mRNA level of HO-1 in the MSC, N2a, and HCEC cells, respectively, that received the (1) sequential treatments of 1H-[1,2,4]oxadiazolo-[4,3-a]quinoxalin-1-one (ODQ, 10 μM for 1 h) and DNIC–COOH (100 μM in MSC for 3 h, 100 μM in N2a for 10 h, and 75 μM in HCEC for 6 h) or (2) cotreatment of 2-phenyl-4,4,5,5-tetramethylimidazoline-1-oxyl-3-oxide (PTIO, 100 μM in MSC, 200 μM in N2a, and 100 μM in HCEC) and DNIC–COOH (100 μM in MSC for 3 h, 100 μM in N2a for 10 h, and 75 μM in HCEC for 6 h) was also evaluated under a similar procedure.

cGMP = assay: DNIC-induced cGMP formation in MSC (confocal immunofluorescence); conditions: 100 μM DNIC–COOH or 2.5 μM DNIC–COOMe, 2 h
Experimental: The MSC cells were plated on a cover glass (18 mm in diameter) loaded into a 24-well plate at a density of 1.7 × 10^3 cells/well until the desired confluency was reached. After the culture media were removed, 100 μM of DNIC–COOH (or 2.5 μM of DNIC–COOMe) was added to the cell culture and incubated for 2 h. The culture media were removed before the MSC cells were washed three times with PBS, whereas the washed MSC cells were further fixed with 4% paraformaldehyde (PFA) solution for 15 min at room temperature. After the PFA solution was removed, the MSC cells were washed twice with PBS for 3 min and permeabilized using 0.1% Triton X-100 (in PBS) at room temperature for 4 min. Subsequently, the MSC cells were washed twice with PBS for 3 min and incubated with a blocking buffer (2.5% BSA in PBS) at room temperature for 30 min. Then, the MSC cells were incubated with primary antibody solution (1:1000 for rabbit anti-cGMP antibody, purchased from Biorbyt, Cambridge, U.K.) at room temperature for 1 h before the MSC cells were washed three times with PBS for 3 min. Cover glasses containing the fixed MSC cells were mounted onto a microscope slide loaded with Fluoroshield mounting medium with DAPI to stain the nuclei before the optical images were captured using a confocal imaging system (Leica TCS-SP-X AOBS).

Row | Structure (SMILES) | tmax for intracellular release of NO (HCEC) [h] | activation of HMOX1 gene (HMOX1 gene) [fold] | formation of cGMP (cGMP)
1 | O=[N][Fe]1([N]=O)[SH](CCC(=O)O)[Fe]([N]=O)([N]=O)[SH]1CCC(=O)O (stereo not drawn) [DNIC–COOH, [(NO)2Fe(μ-SCH2CH2COOH)2Fe(NO)2]] | 6 | 49.5 ± 2.9 | elevated formation of cGMP
2 | COC(=O)CC[SH]1[Fe]([N]=O)([N]=O)[SH](CCC(=O)OC)[Fe]1([N]=O)[N]=O (stereo not drawn) [DNIC–COOMe, [(NO)2Fe(μ-SCH2CH2COOCH3)2Fe(NO)2]] | 1 | 18.8 ± 2.3 | elevated formation of cGMP
